Experimental data published in PubChem BioAssay AID1959 (Broad Institute, 2009).
The source made the active and inactive calls.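 The calls were made as follows: active = growth-inhibition EC50 no more than tenfold above the top tested dose; inconclusive = flat fit between 30% and 70% inhibition, or unreliable fit; inactive = EC50 more than tenfold above the top tested dose.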

System: E. coli NEB5alpha growth, BacTiter-Glo luminescence, 4 h
Assay: Escherichia coli growth inhibition, dose response, counter-screen for MEX-5/POS-1 RNA-binding inhibitor project, luminescence, NEB5alpha (AID 1959);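 also: pUC19-transformed ampicillin-resistant cells grown in LB with ampicillin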

| SMILES | EC50 |
| --- | --- |
| O=C(Cn1cc(C=C2C(=O)NC(=O)NC2=O)c2ccccc21)NCC1CCCO1 (configuration not stated) | > 11 µM (inactive) |
| COC(=O)C1=C(C)N=C2SC(C#N)=C(N)N2C1c1cccc(OC)c1 (configuration not stated) | > 11 µM (inactive) |
| COc1ccc(/C=C2\CCCC(C(=O)C(F)(F)F)=C2O)cc1OC | > 11 µM (inactive) |
| CN(C)c1ccc(/C=N/N(CCC(=O)NC(C)(C)C)C2=NS(=O)(=O)c3ccccc32)cc1 | > 11 µM (inactive) |
| O=C(O)C1Nc2ccc(Br)cc2C2C=CCC12 (configuration not stated) | > 11 µM (inactive) |
| Oc1cc2c(cc1O)C(c1ccccc1)CNCC2 (configuration not stated) | > 11 µM (inactive) |
| Cc1cc(/C=C2\C(=O)NC(=O)N(c3ccc(F)cc3)C2=O)c(C)n1-c1ccc(C(=O)O)cc1 | > 11 µM (inactive) |
| CC(C)OC(=O)C(C#N)c1nc2ccccc2nc1N1CCCC1 (configuration not stated) | > 11 µM (inactive) |
| Cc1cccc(N=Nc2c(O)[nH]c3ccc(Br)cc23)c1 | > 11 µM (inactive) |
| Cc1cc(=O)nc2c3ccccc3n(CC(=O)Nc3ccccc3Br)n12 | > 11 µM (inactive) |
| NS(=O)(=O)c1ccc(Nc2nc(-c3ccc(O)cc3O)cs2)cc1 | > 11 µM (inactive) |
| COc1ccc(/C=N/NC(=O)c2ccc(N(C)S(=O)(=O)c3ccccc3)cc2)cc1 | > 11 µM (inactive) |
| COc1cccc(F)c1C(=O)NC(=O)Nc1ccc2nc(C)oc2c1 | > 11 µM (inactive) |
| CCc1c(C(=O)NNC(=S)Nc2ccc(S(=O)(=O)Nc3ncccn3)cc2)csc1C | > 11 µM (inactive) |
| O=C(NNC(=O)c1cnccn1)c1cccc([N+](=O)[O-])c1 | > 11 µM (inactive) |
| C#CCOCCOCCOCCNc1nc(N2CCN(C(=O)[C@H]([C@@H](C)CC)n3cc([C@@H](N)CO)nn3)CC2)nc(N2CCN(C(=O)[C@H]([C@@H](C)CC)n3cc([C@@H](N)CC(C)C)nn3)CC2)n1 | > 11 µM (inactive) |
| Cc1c(/C=N/NC(=O)c2cc(=O)[nH]c(=O)[nH]2)c2ccccn2c1C(=O)c1ccccc1 | > 11 µM (inactive) |
| COc1cccc(NC(=O)C(=O)c2cn(CC(=O)N3CCOCC3)c3ccccc23)c1 | > 11 µM (inactive) |
| O=C(O)c1cccc(-n2cccc2/C=N/O)c1 | > 11 µM (inactive) |
| Cc1cc(C)c2c(=O)[nH]c(=O)n(Cc3ccccc3)c2n1 | > 11 µM (inactive) |
| O=C(NN1C(=O)c2ccccc2NC1c1ccccn1)c1ccc([N+](=O)[O-])cc1 (configuration not stated) | > 11 µM (inactive) |
| COc1cc2[nH]c(C(=O)NN)c(N)c2cc1OC | > 11 µM (inactive) |
| COC(=O)C1=C(C)N(c2ccc(Cl)cc2)/C(=C/c2cccs2)C1=O | > 11 µM (inactive) |

| SMILES | EC50 |
| --- | --- |
| COc1ccc(C(=O)c2sc3nc(C)cc(-c4cccs4)c3c2N)cc1 | > 11 µM (inactive) |
| COc1ccc(C2C(C#N)=C(N)OC3=C2C(=O)CC(C)(C)C3)cc1OC (configuration not stated) | > 11 µM (inactive) |
| Cc1ccc2nc3c(cc(C(=O)NCC4CCCO4)c(=N)n3C3CCCC3)c(=O)n2c1 (configuration not stated) | > 11 µM (inactive) |
| O=C(O)C1OC(Oc2cc3oc(-c4ccccc4)cc(=O)c3c(O)c2O)C(O)C(O)C1O (configuration not stated) | > 11 µM (inactive) |
| N=C1c2ccccc2CN1NC(=O)CC12CC3CC(CC(C3)C1)C2 | > 11 µM (inactive) |
| Cc1cccn2c(=O)c3cc(S(=O)(=O)c4ccccc4)c(=N)n(CC4CCCO4)c3nc12 (configuration not stated) | > 11 µM (inactive) |
| CCC(C)n1c(O)c(/C=N/Nc2nc3c(c(=O)n(C)c(=O)n3C)n2C)c(=O)[nH]c1=S (configuration not stated) | > 11 µM (inactive) |
| O=C(Cc1nc2ccccc2[nH]c1=O)c1ccccc1 | > 11 µM (inactive) |
| Cn1cc(C2=C(c3ccc(Cl)cc3Cl)C(=O)NC2=O)c2ccccc21 | > 11 µM (inactive) |
| CCCCCCn1c(=O)[nH]c2nc3cc(N)ccc3nc2c1=O | > 11 µM (inactive) |
| CO[C@H]1O[C@H](CBr)[C@@H](OC(=O)c2ccccc2)[C@H](O)[C@H]1O | > 11 µM (inactive) |
| CCCN1C(=O)c2cccc3c(N4CCCCC4)ccc(c23)C1=O | > 11 µM (inactive) |
| CCCCn1c(=O)[nH]c(=O)c2c1nc(-c1ccc(-c3ccccc3Br)o1)n2CCOC | > 11 µM (inactive) |
| O=c1[nH]c2c(s1)C=Nc1ccccc1N2 | > 11 µM (inactive) |
| CCCCN1C(=O)/C(=C/C=C2\Oc3ccccc3N2CC)SC1=S | > 11 µM (inactive) |
| COc1ccc(OC)c(-n2c(O)c(/C=C3\C=Nc4ccccc43)c(=O)[nH]c2=O)c1 | > 11 µM (inactive) |
| CC1(C)CC(=O)C2=C(C1)OC(N)=C(C#N)C21C(=O)N(CN2CCOCC2)c2ccccc21 (configuration not stated) | > 11 µM (inactive) |
| CN(C)c1ccc(/C=C2\N=C(C(C)(C)C)OC2=O)cc1 | > 11 µM (inactive) |
| COc1cc(C2C(C#N)=C(N)OC3=C2C(=O)CC(C)(C)C3)ccc1OCCN1CCOCC1 (configuration not stated) | > 11 µM (inactive) |
| O=c1c(/C=C(\O)c2ccccc2)nc2ccccc2n1-c1ccccc1 | > 11 µM (inactive) |
| CC1(OC(=O)CCc2ccccc2)C(=O)C=C2C=C(C3CC3)OC=C2C1=O (configuration not stated) | > 11 µM (inactive) |
| COc1ccc(NC(=O)CCl)cn1 | > 11 µM (inactive) |
| O=C(/C=C/N1CCOCC1)c1ccc(-c2ccccc2)cc1 | > 11 µM (inactive) |

| SMILES | EC50 |
| --- | --- |
| CCCCC1=CC2=C(c3ccco3)C(=O)C(C)(OC(=O)c3ccc(OC)cc3)C(=O)C2=CN1CCN1CCOCC1 (configuration not stated) | > 11 µM (inactive) |
| CCOC(=O)c1ccc(-n2c(C)ccc2C)cc1 | > 11 µM (inactive) |
| NC(CO)C(=O)NNCc1ccc(O)c(O)c1O (configuration not stated) | > 11 µM (inactive) |
| CCOc1cc(/C=C2\C(=O)NN(c3ccccc3)C2=O)cc([N+](=O)[O-])c1O | > 11 µM (inactive) |
| COC(=O)C1=C(C)N(c2ccccc2)/C(=C/c2ccco2)C1=O | > 11 µM (inactive) |
| N=C1/C(=C\c2ccc(SCc3ccco3)o2)C(=O)N=C2SC=NN12 | > 11 µM (inactive) |
| CC1=NN(c2ccc(C(=O)O)c(N)c2)C(=O)C1 | > 11 µM (inactive) |
| CC(C)C1Nc2c(O)cc(Cl)c([N+](=O)[O-])c2C2C=CCC21 (configuration not stated) | > 11 µM (inactive) |
| CCOC(=O)/C=c1\s/c(=C\c2ccc(C#N)cc2)c(=O)n1CC(=O)NCc1ccco1 | > 11 µM (inactive) |
| O=C(NC(=S)NNS(=O)(=O)c1ccccc1)c1cccnc1 | > 11 µM (inactive) |
| Cc1ccc2[nH]c3c(c2c1)CN(C(=O)CN1CCN(C(=O)c2ccco2)CC1)CC3 | > 11 µM (inactive) |
| COC/C=C/C1=CC2=CC(=O)C(C)(OC(=O)C3CCCC3)C(=O)C2=CO1 (configuration not stated) | > 11 µM (inactive) |
| Cc1cc(/C=C2\C(=O)NC(=O)N(c3ccc(Br)cc3)C2=O)c(C)n1-c1cc(C(=O)O)cc(C(=O)O)c1 | > 11 µM (inactive) |
| COC(=O)c1cccc(-n2c(CCC(=O)O)ccc2-c2cccs2)c1 | > 11 µM (inactive) |
| Cc1cccc(/C=C(\C(=O)C(=O)O)c2ccc3ccccc3n2)c1 | > 11 µM (inactive) |
| CCOc1ccc(N2C(=O)/C(=C/c3ccc(C)o3)C(=O)NC2=S)cc1 | > 11 µM (inactive) |
| COC(=O)C1CSc2[nH]c(=O)sc2C1c1ccc(OC)c(OC)c1 (configuration not stated) | > 11 µM (inactive) |
| Cc1c(N=Cc2c(O)n(Cc3ccccc3)c(=O)[nH]c2=O)c(=O)n(-c2ccccc2)n1C | > 11 µM (inactive) |
| COc1ccc(C2=CC3=CC(=O)C(C)(O)C(=O)C3=CO2)cc1 (configuration not stated) | > 11 µM (inactive) |
| O=C(O)c1cc(-c2ccc(/C=N/Nc3ccc([N+](=O)[O-])cn3)o2)ccc1Cl | > 11 µM (inactive) |
| CCOC(=O)c1nn(-c2ccc(C)cc2)c2nc(Nc3ccccc3)cc(=O)n12 | > 11 µM (inactive) |
| Cc1ccc(N2C(=O)/C(=C/c3ccc(CN(CCC#N)S(C)(=O)=O)o3)C(=O)NC2=S)cc1 | > 11 µM (inactive) |
| CC(C)(C)OC(=O)NC(Cc1ccccc1)C(=O)N1CCC(C(=O)NCC(=O)Nc2ccc(F)cc2)CC1 (configuration not stated) | > 11 µM (inactive) |

| SMILES | EC50 |
| --- | --- |
| COc1ccc(C2c3cc(OC)c(OC)cc3CCN2S(C)(=O)=O)cc1OC (configuration not stated) | > 11 µM (inactive) |
| CN1CC=C2C(C#N)=C(N)C(C#N)(C#N)[C@H](c3cccc(Cl)c3)C2C1 (some centres not stated) | > 11 µM (inactive) |
| COc1ccc(C2C(C#N)=C(N)OC3=C2C(=O)CC(C)(C)C3)c([N+](=O)[O-])c1OC (configuration not stated) | > 11 µM (inactive) |
| Nc1ccc(Nc2ccccc2)c(S(=O)(=O)O)c1 | > 11 µM (inactive) |
| C[C@H]1c2cccc(O)c2C(O)=C2C(=O)[C@]3(O)C(O)=C(C(N)=O)C(=O)[C@@H](N(C)C)[C@@H]3[C@@H](O)[C@@H]21 | 4.67 µM |
| COc1ccc(C2C(C#N)=C(N)OC3=C2C(=O)CCC3)cc1OC (configuration not stated) | > 11 µM (inactive) |
| N#CC(c1nc2ccccc2nc1OCCO)S(=O)(=O)c1ccccc1 (configuration not stated) | > 11 µM (inactive) |
| O=CN/N=C/c1c(O)ccc2ccccc12 | > 11 µM (inactive) |
| COc1cccc(N2C(=O)NC(=O)/C(=C/c3ccc([N+](=O)[O-])s3)C2=O)c1 | > 11 µM (inactive) |
| O=C(O)c1ccccc1-n1c2ccccc2c2ccccc21 | > 11 µM (inactive) |
| COC(=O)CNC(=O)C1Nc2ccccc2C2C=CCC12 (configuration not stated) | > 11 µM (inactive) |
| COc1ccc2nc3ccccc3nc2c1NC(=O)c1ccc(Br)cc1 | > 11 µM (inactive) |
| O=C1N=C(N2C=CC(=C3C=CNC=C3)C=C2)/C(=C/N=NC(=O)c2ccccc2O)S1 | > 11 µM (inactive) |
| O=C(C1=NN(c2ccccc2)C2C(=O)N(c3ccccc3Cl)C(=O)C12)c1ccccc1 (configuration not stated) | > 11 µM (inactive) |
| CCN(CC)c1ccc(N=Cc2c(O)n(-c3ccc(OC)cc3)c(=O)[nH]c2=O)cc1 | > 11 µM (inactive) |
| Cn1cc(/C=N/n2cnc3scc(-c4ccc(Cl)cc4)c3c2=O)c2ccccc21 | > 11 µM (inactive) |
| O=C1NC(=S)/C(=C\c2ccc(-c3ccccc3Cl)o2)S1 | > 11 µM (inactive) |
| N#CC(C#N)=Cc1cccn1-c1ccc(C(=O)O)cc1 | > 11 µM (inactive) |
| COc1ccc(/C=C/C(=O)c2c(C)cc(C)[nH]c2=O)c2ccccc12 | > 11 µM (inactive) |
| COc1ccc(/C=C2\N=C(C)OC2=O)cc1OC | > 11 µM (inactive) |
| COC(=O)Cn1cc(C=C2C(=O)N(C)C(=O)N(C)C2=O)c2ccccc21 | > 11 µM (inactive) |
| COC(=O)/C(C#N)=C/c1c(Oc2cc(C)cc(C)c2)nc2c(C)cccn2c1=O | > 11 µM (inactive) |
| O/C=c1\ccc2cccc3nc(C(F)(F)F)nc1c23 | > 11 µM (inactive) |
